Experimental data taken from US20170101432A1, “CRYSTALLINE 3',5'-CYCLIC DIGUANYLIC ACID” (Yamasa Corporation, priority 2014, published 2017).

Experiment: Stability: storage at 50° C. in a desiccator containing saturated saline, HPLC purity measured
Type: physicochemical
Conditions: for relative residual ratio: storage at 50° C., saturated saline desiccator
Experimental: Note that the high performance liquid chromatography method was performed under the following condition. Column: Hydrosphere C18 (product of YMC Co., Ltd.) Eluate: 0.1M TEA-P (pH 6.0) Detection method: detection by UV 260 nm The crystals of 3′,5′-cyclic diguanylic acid of the present invention and the co-crystals with cobalt and the co-crystals with magnesium of Reference Examples were stored at 50° C. in a desiccator containing saturated saline, and HPLC purity of each of them was measured on days 0, 7, 31, 84 and 167 after the start of storage. The result of measurement of HPLC purity (%) is shown in Table 5 below and relative residual ratios (%) on each day for measurement after the start of storage, taking the purity of day 0 of measurement as 100%, are shown in Table 6.

[1] = day 0, purity of day 0 taken as 100%
[2] = day 0 after the start of storage at 50° C. in a desiccator containing saturated saline
[3] = day 7, purity of day 0 taken as 100%
[4] = day 7 of storage at 50° C. in a desiccator containing saturated saline
[5] = day 31, purity of day 0 taken as 100%
[6] = day 31 of storage at 50° C. in a desiccator containing saturated saline
[7] = day 84, purity of day 0 taken as 100%
[8] = day 84 of storage at 50° C. in a desiccator containing saturated saline
[9] = day 167, purity of day 0 taken as 100%
[10] = day 167 of storage at 50° C. in a desiccator containing saturated saline

Compound | relative residual ratio [1] [%] | HPLC purity [2] [%] | relative residual ratio [3] [%] | HPLC purity [4] [%] | relative residual ratio [5] [%] | HPLC purity [6] [%] | relative residual ratio [7] [%] | HPLC purity [8] [%] | relative residual ratio [9] [%] | HPLC purity [10] [%] | decrease rate of HPLC purity (after storing at 50° C. for 167 days in a desiccator containing saturated saline)
Nc1nc2c(ncn2C2OC3COP(=O)(O)OC4C(COP(=O)(O)OC3C2O)OC(n2cnc3c(=O)[nH]c(N)nc32)C4O)c(=O)[nH]1 (stereo not shown) [Co, 3′,5′-cyclic diguanylic acid] | 100 | 99.9 | 100 | 99.9 | 99.8 | 99.7 | 99.8 | 99.7 | 99.6 | 99.4 | 
Nc1nc2c(ncn2C2OC3COP(=O)(O)OC4C(COP(=O)(O)OC3C2O)OC(n2cnc3c(=O)[nH]c(N)nc32)C4O)c(=O)[nH]1 (stereo not shown) [Mg, 3′,5′-cyclic diguanylic acid] | 100 | 99.8 | 100 | 99.7 | 99.8 | 99.6 | 100.0 | 99.8 | 99.5 | 99.3 | 
Nc1nc2c(ncn2[C@@H]2O[C@@H]3COP(=O)(O)OC4C(O)[C@H](n5cnc6c(=O)[nH]c(N)nc65)O[C@@H]4COP(=O)(O)OC3C2O)c(=O)[nH]1 (stereo partly shown) [Present Invention, 3′,5′-cyclic diguanylic acid] | 100 | 99.0 | 100.1 | 99.1 | 99.6 | 98.6 | 99.9 | 98.9 | 100.0 | 98.9 | less than 1%
